# Reference: publication PMC10341805, “Positive Allosteric Modulator of SERCA Pump NDC-1173 Exerts Beneficial Effects in Mouse Model of Alzheimer’s Disease” (International Journal of Molecular Sciences, 2023)
# Read-outs that look alike come from different tables or passages of the source.
# Columns and labels:
# [1] = test system: APP/PS1 mice; experiment: Ca2+ imaging in APP/PS1 mice; parameters: species or system mouse
# [2] = test system: activating transcription factor 4 (ATF4); experiment: qPCR of ER-stress marker ATF4 mRNA in hippocampus of treated APP/PS1 mice; format: in vivo, mouse; conditions: 30 mg/kg oral gavage 3 times per week for 8 weeks, vs untreated APP/PS1, normalized to Cyclophilin, mean ± SD
# From the text: (§1) As previously established in Alzheimer’s disease (AD) research, ER stress is an apparent consequence of protein misfolding within AD pathophysiology. In response to this ER stress, cells activate a group of signaling pathways known as the unfolded protein response (UPR) that aims to restore ER function so the cell may survive. […] We examined the mRNA expression levels of these ER-stress markers in the hippocampus of APP/PS1 mice treated with NUCC-0226446, NUCC-0226614, NUCC-0226646, and NDC-1173 compounds compared to untreated APP/PS1 mice utilizing real-time quantitative PCR using primer sets indicated in Table 2. There was significant reduction (p = 0.0002) in the ER-stress marker, Chop, after treatment with NDC-1173 compared to untreated APP/PS1 mice (n = 9–11) (Figure 4, Table 3). […]
# (§2) At 10 months of age, mice were rapidly decapitated, and the entire hippocampus was dissected and snap-frozen using liquid nitrogen. […] Total RNA concentration and purity was then measured using a NanoDrop spectrophotometer. […] Data were exported from the RT PCR machine into an excel worksheet. %CVs were calculated between triplicate well CT values to rule out technical outliers. […] Relative expression was then analyzed following the comparative CT method ( 2^−∆∆CT method).
# [3] = test system: activating transcription factor 6 (ATF6); experiment: qPCR of ER-stress marker ATF6 mRNA in hippocampus of treated APP/PS1 mice; format: in vivo, mouse; conditions: 30 mg/kg oral gavage 3 times per week for 8 weeks, vs untreated APP/PS1, normalized to Cyclophilin, mean ± SD
# From the text: as §1, §2
# [4] = test system: binding immunoglobulin protein (BiP/Grp78); experiment: qPCR of ER-stress marker BiP mRNA in hippocampus of treated APP/PS1 mice; format: in vivo, mouse; conditions: 30 mg/kg oral gavage 3 times per week for 8 weeks, vs untreated APP/PS1, normalized to Cyclophilin, mean ± SD
# From the text: as §1, §2
# [5] = test system: APP/PS1 mice; experiment: Tolerability during 8 weeks of administration; format: in vivo, mouse; conditions: 30 mg/kg oral gavage 3 times per week for 8 weeks
# Procedure: Vehicle or NDC 1173 was administered via oral gavage 3 times per week for 8 weeks at a dose of 30 mg/kg in a vehicle containing 10%DMSO/10%Tween80 in water at a 3 mg/mL concentration. The dose was chosen so that the drug would be on board while the first signs of amyloid plaques appear (6 mos) and before the time the disease had fully progressed. We chose to administer the drug 3 times per week to cause minimal stress to the mouse.
# [6] = Pharmacokinetics in CD-1 mice (plasma and brain); format: in vivo, mouse
# Procedure: Pharmacokinetics of NDC-1173 were assessed in CD-1 mice. The compound was formulated at 1 mg/mL in DMSO/Tween 80/water (10/10/80, vol/vol/vol) and dosed at 2 mg/kg intravenously (i.v.) or 10 mg/kg via oral gavage (P.O.) in triplicate. Blood was drawn at 0.25 h, 0.5 h, 1 h, 2 h, 4 h, 8 h, and 24 h into EDTA-containing tubes, and plasma was harvested via centrifugation. Plasma (10 μL) containing 50% acetonitrile in water (5 μL) was added to 200 µL of ACN containing an internal standard. The samples were vortexed for 30 s. After centrifugation at 4 °C and 4000 rpm for 15 min, the supernatant was diluted 3 times with water. Then, 20 µL of diluted supernatant was injected into the LC/MS/MS system for quantitative analysis. The samples were injected onto an Agilent ZORBAX XDB-Phenyl 5 μ column (50 × 2.10 mm). Mobile Phase A was water with 0.1% formic acid. Mobile Phase B was acetonitrile with 0.1% formic acid. Separation was achieved using a gradient of 70% A/30% B to 0% A/100% B over 2.10 min. A Shimadzu LCMS-8050 equipped with a turbo ion spray source was used for all analytical measurements. Data were fit using WinNonLin https://www.certara.com/software/phoenix-winnonlin/, accessed on 1 May 2023.
# [7] = test system: L-type Ca channel; experiment: Selectivity test on L-type Ca channel; format: biochemical; conditions: selectivity for SERCA
# [8] = test system: APP/PS1 mice; experiment: Morris water maze (training and probe trial); format: in vivo, mouse; conditions: 30 mg/kg oral gavage 3 times per week for 8 weeks
# Procedure: (§3) To evaluate the effects of NUCC-0226446, NUCC-0226614, NUCC-0226646, and NDC-1173 on cognitive readouts in the AD mouse model, we treated APP/PS1 male and female mice with vehicle (10%DMSO/10%Tween80 in water) or SERCA PAMs (30 mg/kg) via oral gavage three times per week for 8 weeks, starting at 6 months of age. Open-field, object-recognition, and water maze assays were performed following treatment with 8-month-old mice. To test for locomotor activity changes in response to SERCA PAMs treatment in APP/PS1, we used the open-field test. The results obtained with NUCC-0226446, NUCC-0226614, NUCC-0226646 are shown in Supplementary Figure S1 and results with NDC-1173 are shown in Figure 3. […] There was a significant sex difference in the open field (F(1,27) = […]), but there was no sex by treatment interaction found.
# (§4) Vehicle or NDC 1173 was administered via oral gavage 3 times per week for 8 weeks at a dose of 30 mg/kg in a vehicle containing 10%DMSO/10%Tween80 in water at a 3 mg/mL concentration. […]
# The water maze consisted of 3 phases pre-training, training, and probe trial. […] Ethovision XT (Version 15) tracking software recorded the latency to the platform. […] During the probe trial, the platform was not present within the pool and the search pattern of the mouse is measured. […]
# [9] = test system: C/EBP homologous protein (CHOP/Ddit3); experiment: qPCR of ER-stress marker CHOP mRNA in hippocampus of treated APP/PS1 mice; format: in vivo, mouse; conditions: 30 mg/kg oral gavage 3 times per week for 8 weeks, vs untreated APP/PS1, normalized to Cyclophilin, mean ± SD
# From the text: as §1, §2
# [10] = test system: APP/PS1 mice; experiment: Object recognition task; format: in vivo, mouse; conditions: 30 mg/kg oral gavage 3 times per week for 8 weeks, test 24 h after training
# Procedure: as §3, §4
# The object recognition task (OR) was performed as previously described. […] Interaction was determined by the length of time the mouse’s nose was within 1 cm of a tightly drawn zone around each object. […] Time spent interacting with each object was then measured using Ethovision XT software (Version 15). […]
# [11] = test system: ryanodine receptor; experiment: Selectivity test on ryanodine receptor; format: biochemical; conditions: selectivity for SERCA
# [12] = test system: X-box binding protein 1 spliced variant (XBP1spl); experiment: qPCR of ER-stress marker XBP1spl mRNA in hippocampus of treated APP/PS1 mice; format: in vivo, mouse; conditions: 30 mg/kg oral gavage 3 times per week for 8 weeks, vs untreated APP/PS1, normalized to Cyclophilin, mean ± SD
# From the text: as §1, §2
# [13] = test system: Na/K-ATPase; experiment: Selectivity test on Na/K-ATPase; format: biochemical; conditions: selectivity for SERCA
# [14] = CD-1, mouse, plasma, oral administration 10 mg/kg
"half-life ([6]; CD-1, mouse, brain, oral administration 10 mg/kg, read-out: Brain t1/2 (converted))","Kp ([6]; CD-1, mouse, brain/plasma, oral administration 10 mg/kg, read-out: Brain/plasma ratio)","AUC [6, 14]","Cmax [6, 14]","half-life ([6]; CD-1, mouse, plasma, oral administration 10 mg/kg, read-out: Plasma t1/2 (converted))","bioavailability ([6]; CD-1, mouse, plasma, oral, 10 mg/kg P.O. vs 2 mg/kg i.v.)",Brain concentration at 2 h ([6]; oral administration 10 mg/kg),Functional effect on ryanodine receptor [11],Functional effect on Na/K-ATPase [13],SMILES,Effect on Ca2+ homeostasis [1],Fold-change of ATF4 mRNA expression [2],Fold-change of ATF6 mRNA expression [3],Fold-change of BiP mRNA expression [4],Adverse effects or weight loss [5],Functional effect on L-type Ca channel [7],Spatial learning in water maze training (4 days) vs vehicle [8],Spatial memory in water maze probe trial (time in target quadrant) vs vehicle ([8]; 24 h after last training),Fold-change of CHOP mRNA expression [9],Object memory (time spent with novel object) vs vehicle [10],Fold-change of XBP1spl mRNA expression [12]
,,,,,,,,,Cc1ccc2cccc(NC(=O)c3ccc(OC(C)C)cc3)c2n1 [CDN-1163],restores normal Ca^2+ homeostasis,,,,,,,,,,
1.1 h,2.8,375 ng·h/mL,1250 nM,0.9 h,25.6%,2500 nM,no significant functional effects,no significant functional effects,"COc1c(C)cccc1C(=O)Nc1cccc2ccc(C)nc12 [NDC-1173, 2-methoxy-3-methyl-N-(2-methylquinolin-8-yl)benzamide]",,1.17 ± 0.496,0.79 ± 0.327,0.74 ± 0.401,no adverse effects or weight loss,no significant functional effects,did not have better performance in spatial learning,spent more time in the quadrant where the escape platform was located,0.52 ± 0.195,significant increase in time spent with the novel object,0.72 ± 0.577
